What was measured:
MLL-r cells = experiment: Pre-clinical study of EPZ-5676: methyl mark inhibition and cell killing; type: cell-based; details: pre-clinical study plots, FIGS. 3A-3D
[1] = system: patients with MLL-r and MLL-PTD; experiment: Phase 1 dose escalation/expansion study of EPZ-5676 in leukemia patients; type: in vivo, human
Protocol: FIG. 1 is a summary of Phase 1 dose escalation study of EPZ-5676. […] The expansion stage of a Phase 1 study is enrolling adult patients with MLL-r and MLL-PTD who are being treated with 90 mg/m^2/day with uninterrupted administration.

Compound: CC(C)N(C[C@H]1O[C@@H](n2cnc3c(N)ncnc32)[C@H](O)[C@@H]1O)[C@H]1C[C@@H](CCc2nc3cc(C(C)(C)C)ccc3[nH]2)C1 [Compound A2, (2R,3R,4S,5R)-2-(6-amino-9H-purin-9-yl)-5-((((1r,3S)-3-(2-(5-(tert-butyl)-1H-benzo[d]imidazol-2yl)ethyl)cyclobutyl)(isopropyl)amino)methyl)tetrahydrofuran-3,4-diol]
- effect of target methyl mark inhibition on cancer cells (MLL-r cells): selective killing of genetically defined cancer cells
- safety: drug-related treatment discontinuations ([1]; adult patients with MLL-r and MLL-PTD, 90 mg/m^2/day uninterrupted administration, expansion stage of Phase 1): no drug-related treatment discontinuations
- effect on leukemic cells in patients (micrographs) ([1]; patients with MLL-r, FIGS. 8A-8F): differentiation effect
